One series deals with Mus musculus. The series can be described thus: Anti-diabesity activity against high fat diet-induced DIO C57BL/6 mouse model assessed as decrease in body weight at 25 nmol/kg, sc administered for 2 weeks. Particulars: C57BL/6, 336 h, time 14 day. Format: functional.
The nature of series [1]: Pancreatic insult activity in db/db mouse assessed as increase in lipase level in serum at 25 nmol/kg, sc administered every 2 days for 12 weeks. Format: toxicity, organism-based. Particulars: in vivo, 2016 h.
Series [2] is described as follows: Pancreatic insult activity in db/db mouse assessed as increase in amylase level in serum at 25 nmol/kg, sc administered every 2 days for 12 weeks. Format: toxicity, organism-based. As to conditions: in vivo, 2016 h.

On to `CCCCCCCCCCCCCCCC(=O)N[C@@H](CCC(=O)NCCCC[C@H](NC(=O)[C@H](C)NC(=O)[C@H](C)NC(=O)[C@H](CCC(N)=O)NC(=O)CNC(=O)[C@H](CCC(=O)O)NC(=O)[C@H](CC(C)C)NC(=O)[C@H](Cc1ccc(O)cc1)NC(=O)[C@H](CO)NC(=O)[C@H](CO)NC(=O)[C@@H](NC(=O)[C@H](CC(=O)O)NC(=O)[C@H](CO)NC(=O)[C@@H](NC(=O)[C@H](Cc1ccccc1)NC(=O)[C@@H](NC(=O)CNC(=O)[C@H](CCC(=O)O)NC(=O)[C@H](C)NC(=O)[C@@H](N)Cc1cnc[nH]1)[C@@H](C)O)[C@@H](C)O)C(C)C)C(=O)N[C@@H](CCC(=O)O)C(=O)N[C@@H](Cc1ccccc1)C(=O)N[C@H](C(=O)N[C@@H](C)C(=O)N[C@@H](Cc1c[nH]c2ccccc12)C(=O)N[C@@H](CC(C)C)C(=O)N[C@H](C(=O)N[C@@H](CCCNC(=N)N)C(=O)NCC(=O)N[C@@H](CCCNC(=N)N)C(=O)NCC(=O)O)C(C)C)[C@@H](C)CC)C(=O)O` [LIRAGLUTIDE], for which the inhibition in vivo at 0.025 µmol/kg with Mus musculus worked out at 9.8%.
In the case of SEMAGLUTIDE, the Activity result in series [1] and in series [2] was “Toxic” each time.

The record behind these values is ChEMBL document CHEMBL5143608, “Peptide-based long-acting co-agonists of GLP-1 and cholecystokinin 1 receptors as novel anti-diabesity agents” (Eur J Med Chem, 2022).
